The results in this text go back to patent US6989270B1, “Using polyamide nucleic acid oligomers to engender a biological response” (Mayo Foundation for Medical Education and Research, priority 1997, dated 2006).

Holding throughout (format): in vivo, rat
The test system of series [1] is neurotensin receptor-1 (NTR1). The series is described as follows: NT-induced hypothermia (rectal body temperature) in PNA-treated rats. Here is the method:
NTR1-PNA, MU1R-PNA, and ACSF treated as well as untreated rats were analyzed using the hot plate test for NT. One day after the last treatment, each rat was analyzed as follows. Fifteen minutes prior to testing, a pre-drug latency measurement was made by placing the rat on a hot plate maintained at a temperature of 52±0.15° C. and recording the time elapsed before the rat licked either of its hindpaws. In addition, the temperature of the rat was taken using a thermister probe inserted 3 cm in the rectum to determine the pre-drug body temperature (BT). After making these measurement, an appropriate dose of NT (18 nmol) at a volume of about 0.5 ul was administered into the PAG as described above. Thirty minutes after administering NT, the rat was again placed on a hot plate maintained at a temperature of 52±0.15° C. and the latency between the time the rat was placed on the surface and the time it licked either of its hindpaws was measured. […] Hot plate tests were scored as the percent of maximum possible effect (% MPE) and calculated using the following equation: % MPE=[(post-drug latency−pre-drug latency)/(cut-off−pre-drug latency)]×100; where the cut-off is 30 seconds. […] This average for untreated control rats was used to set the baseline MPE value to 100. Immediately after the 30 second hot plate test, BT was taken to measure NT-induced hypothermia using a thermister probe inserted 3 cm in the rectum. […] All test situations were compared to these baseline values derived from NT responsive untreated controls.
(§1) AS-NTR1-PNA, mismatch-AS-NTR1-PNA, and MU1R-PNA were injected intraperitoneally (10 mg/kg) independently, into separate groups of male Sprague-Dawley rats (Harlan, Prattville, Ala.). The sense-NTR1-PNA oligomer, however, was microinjected directly into the periaqueductal gray (PAG; 5 μg), the major area in the brain involved with perception of pain (nociception). […] Thirty minutes after receiving NT, animals were scored for anti-nociception (hot plate at 52° C.) and hypothermia (rectal probe). Again, anti-nociception scores were calculated as percent of maximum possible effect (% MPE) with the following equation: % MPE=[(post-drug latency time minus pre-drug latency time)/(cut-off time minus pre-drug latency time)]×100; where the cut-off time (i.e., the time when the animal was removed from the device) was 30 seconds for a hot plate test and 12 seconds for a tail flick test. Statistical analysis was done using the rank sum test.

The subject of the next series is NTR1 binding sites. The series is described as follows: [125I]NT binding in PAG, rest of brain and small intestine after i.p. AS-NTR1-PNA (Example 8). The conditions noted are these: for Binding (% change vs control) NT: 24 hours after i.p. injection.
The subject of another series is mu-1 receptor (MU1R). The series is described as follows: Tail flick test of MOR-mediated anti-nociception in PNA-treated rats. Here is the method: The injection of MOR into rats produces a potent anti-nociceptive response. This response is mediated by specific MOR receptors and is inhibited by naloxone. A very sensitive and reliable tail flick test was devised and used to measure the anti-nociceptive effects of MOR (D'Amour F. E. and Smith D. L, J. Pharm. Exp. Therap. 72:74-79 (1941)).
MU1R-PNA, NTR1-PNA, and ACSF treated as well as untreated rats were analyzed using the MOR-specific tail flick test. One day after the last treatment, each rat was analyzed as follows. Thirty minutes prior to testing, a pre-drug latency measurement was made by placing the tail of the restrained rat in oil maintained at a temperature of 60° C. and recording the time elapsed before the rat flicked its tail. After making this measurement, an appropriate dose of MOR (5 mg/kg of body weight) at a volume of about 200 μl was injected i.p. Thirty minutes after administering MOR, the restrained rat's tail was again placed in the oil maintained at 60° C. and the latency between the time the tail was placed in the oil and the time the rat flicked its tail was measured. […] Tail flick tests were scored as the percent of MPE and calculated using the following equation: % MPE=[(post-drug latency−pre-drug latency)/(cut-off−pre-drug latency)]×100; where the cut-off is 12 seconds. […] This average for untreated control rats was used to set the baseline A MPE value to 100. All test situations were compared to this baseline response value derived from MOR responsive untreated controls. To test the significance, data were analyzed using the Student's t-test with p<0.05 being considered significant.
as §1

Regarding “NTR1-PNA: 12-mer antisense PNA oligomer to rat NTR1 coding region, 5′-CATTGCTCAAAC-3′ (SEQ ID NO: 1) (all peptide nucleic acid (PNA))”, in series [1] (10 mg/kg intraperitoneally, NT 18 nmol 24 hours later), the “body temperature change in response to NT” value is −0.5 °C. Also, the “time until which NT-mediated hypothermia remained significantly reduced” value in series [1] (PNA injected into PAG on days -4, -2, 0) is reported as “day six”. Moreover, the “ED50 for reducing NT hypothermia” value in series [1] (intraperitoneal dose-response, one batch of PNA) is 3.2 mg/kg. For the same substance, the results for the “reduction in the number of NTR1 binding sites vs untreated animals” value in the series on NTR1 binding sites (PAG), with NTR1 binding sites (rest of brain) and in the series with NTR1 binding sites (small intestine) were 35%, 40% and 65%, respectively. In addition, the “Binding (% change vs control) NT” value in the series with NTR1 binding sites (PAG) is −35 ± 9 % change vs control; with NTR1 binding sites (Rest of Brain), −40 ± 1 % change vs control; with NTR1 binding sites (Small Intestine) it was −65 ± 5 % change vs control. Further, the “anti-nociception score (tail flick) after MOR” value in the series on mu-1 receptor (MU1R) (10 mg/kg i.p. treated animals lacking NT anti-nociception, MOR 5 mg/kg i.p.) turned out to be 95 % MPE. For the same substance, the “MPE (tail flick) response to MOR challenge as percent of baseline response” value with mu-1 receptor (MU1R) (PNA injected into PAG on days -4, -2, 0, MOR 5 mg/kg i.p.) is recorded as “indistinguishable from baseline responses”. Also, in the series on mu-1 receptor (MU1R) (intraperitoneal administration, Table VI), the “Responsiveness: Morphine (anti-nociception)” value was “normal”.
